Patent publication US8530183B2, “Zinc sensors for cellular imaging” (The Board of Regents of the University of Texas System, priority 2010, dated 2013)
“Also recorded” adds a separate entry of the source.

What was measured:
cultured mammalian cells = test: Growth rate of ZIMIR-labeled cells versus unlabeled cells (cytotoxicity); assay type: cell-based; details: over the next several days after labeling
MIN6 cells = test: Epifluorescence ZIMIR imaging of KCl-stimulated insulin/Zn2+ release; assay type: cell-based, mouse; details: KCl 40 mM
Description: FIGS. 6A-E. ZIMIR imaging of insulin/Zn^2+ release. (FIGS. 6A-E) KCl stimulated insulin/Zn^2+ release in MIN6 cells. Example images of MIN6 cells (FIG. 6A, DIC/Normasky) before (FIG. 6B) and after KCl (40 mM, C) or Zn^2+ addition (1 μM, D). Time courses of ZIMIR signal changes (F/F0) in two example regions of interest (ROI, indicated in D by dashed lines) along the plasma membrane.
Cell culture and ZIMIR imaging by wide field fluorescence microscopy. Details of cell culture are described below. For cell imaging, we cultured cells in 35 mm petri dishes with glass-bottoms (MatTek, Ashland, Mass.). […] To image insulin/Zn^2+ secretion, we routinely included 10 μM of EDTA in SAB to chelate the residual Zn^2+ and to reduce the baseline fluorescence. […]
Membrane ZIMIR fluorescence intensity was measured by drawing regions of interest (ROIs) along the plasma membrane, and its time course was normalized against its baseline value after background subtraction, i.e., (F-Fbkg)/(F0-Fbkg), where Fbkg is the average background fluorescence intensity of a nearby area containing no cells. […] Wide field fluorescence microscopy was carried out on inverted fluorescence microscopes as described (Guo et al., 2008).
ZIMIR imaging by wide field fluorescence microscopy. […]

INS-1 cells = test: Response of membrane-anchored ZIMIR to extracellular Zn2+ and decay upon Zn2+ washout; assay type: cell-based, rat
Description: FIGS. 5A-B. Membrane anchored ZIMIR reports changes of [Zn^2+]e. (FIG. 5A) Example fluorescence images (Excitation 488±7.5 nm, emission 530±20 nm) of INS-1 cells labeled with ZIMIR at different [Zn^2+]e. (FIG. 5B) Quantification of the average ZIMIR fluorescence intensity along the plasma membrane (IZIMIR(PM)).
(FIG. 7A) Time courses of IZIMIR(PM) decay after washing INS-1 cells (initially bathed in FIBS containing 1 μM Zn^2+) with HBS containing EDTA (10 μM) and DPAS (0-8 μM). (FIG. 7B) ZIMIR imaging of insulin/Zn^2+ release of MIN6 cells bathed in SAB containing EDTA (10 μM) and DPAS (4 μM). Time courses of IZIMIR(PM) fluctuation of four separate regions of interest (ROI 1-4) and example ZIMIR images at different time points were shown (a-e; arrow heads highlighting local ZIMIR increases in separate ROIs at different time).
To characterize the response of membrane anchored ZIMIR to changes of extracellular Zn^2+ concentration ([Zn^2+]), the inventors varied [Zn^2+]e from low nanomolar to micromolar, using Zn^2-1 buffers containing nitrilotriacetic acid (for [Zn^2+]e<100 nM) (Hirano et al., 2000) or histidine (for [Zn^2+]e. 100 nM) (Hauser and Tsien, 2007). After recording fluorescence images at different [Zn^2+]e levels, the inventors washed cells with a nominally Zn^2+ free SAB containing 0.2 mM DPAS and followed the decay of IZIMIR(PM).
Upon membrane depolarization, ZIMIR signal increased immediately and reached a plateau before it gradually declined (FIGS. 6E-F). Unexpectedly, however, in some occasions, ZIMIR signal remained elevated even after the inventors lowered KCl concentration to the resting level (5 mM) (FIG. 9). […] In INS-1 beta cells labeled with ZIMIR, after recording ZIMIR fluorescence in solutions containing ˜1 μM of Zn2+, the inventors perifused cells with a nominally Zn^2+-free solution containing only EDTA (10 μM), or with both EDTA (10 μM) and different concentrations of DPAS.

How did the “growth rate of labeled cells / cytotoxicity” value (cultured mammalian cells) turn out when `CCCCCCCCCCCCN(CC(=O)O)Cc1c2oc3c(CN(CCCCCCCCCCCC)CC(=O)O)c(O)ccc3c(-c3cc(NCCN(CCc4ccccn4)Cc4ccccn4)ccc3C(=O)O)c-2ccc1=O` [ZIMIR] was run?
Its value is “same growth rate as unlabeled cells; also recorded: very little cytotoxicity”.

And the “ZIMIR fluorescence change upon KCl stimulation” value (MIN6 cells)?
The value was “robust enhancement in ZIMIR fluorescence”.

And the “decaying half lifetime of membrane ZIMIR signal upon Zn^2+ washout” value (INS-1 cells; INS-1 cells, EDTA 10 μM only, absence of DPAS)?
The value was 2.723 min.

What about the “ZIMIR fluorescence along the plasma membrane (IZIMIR(PM)) versus [Zn^2+]e” value (INS-1 cells; [Zn^2+]e varied from nanomolar to micromolar) of the same compound?
The value was “stepwise increase with incremental level of [Zn^2+]e”.
